From patent publication US8623429B2, “Stabilized anthocyanin compositions” (Omnica GmbH, priority 2007, dated 2014)

Assays:
Type in all cases: physicochemical
[1] = Example 9: stability of bilberry extract anthocyanosides, 4 hours at 37° C., pH 7.0, with/without L-cysteine
Experimental: Sample a) 60 mg bilberry extract [37% anthocyanosides] (0.048 mmol anthocyanosides expressed as cyanidin-3-O-glucoside) were added to a 100 ml flask with 60 ml sodium phosphate buffer (5% [w/w], pH=7.0), and stirred until dissolution was complete. A 1 ml sample was taken immediately and acidified with formic acid to pH=1.0 and analyzed by HPLC for the content of anthocyanosides (Fresh Sample). The remaining solution was kept for 4 hours at 37° C. (water bath) with stirring. Thereafter another sample (Blank sample), representing unprotected degradation, was taken and acidified.
Sample b) 20 mg L-cysteine […] were added to a 100 ml flask with 60 ml sodium phosphate buffer (5% [w/w], pH=7.0) and stirred until dissolution was complete. 60 mg bilberry extract [37% anthocyanosides] (0.048 mmol expressed as cyanidin-3-O-glucoside) were then added to the flask and stir to fully dissolve, then kept for 4 hours at 37° C. (water bath) with stirring.
After 4 hours, samples were taken and acidified immediately with formic acid to pH=1.0 and analyzed by HPLC for the content of anthocyanosides. Degradation is expressed as decrease in peak area of individual peaks (calculated as % left after 4 hours).
Samples were prepared as outlined above in the HPLC Analytical Method. Test stability samples were immediately acidified (to block degradation) and injected undiluted following the detailed description provided below.

[2] = Example 2: degradation over time of selected bilberry anthocyanosides at 37° C., pH 7.0, with/without GSH (HPLC); settings: pH 7.0, 37° C.; for %-residual anthocyanosides (% left): 4.30 hours
Experimental: Sample a) 60 mg bilberry extract [37% anthocyanosides] (0.048 mmol expressed as cyanidin-3-O-glucoside) were added to a 100 ml, filled to volume with sodium phosphate buffer (5% [w/w], pH=7.0) and stirred until dissolution was complete. A 1 ml sample was immediately taken and acidified with formic acid to pH=1.0 and analyzed by HPLC for the content of anthocyanosides. The remaining solution was kept at 37° C. (water bath) with stirring and additional 1 ml samples (Blank Samples), representing unprotected degradation, were sampled every 15 minutes. The samples were analyzed for selected anthocyanosides by HPLC.
Sample b) 20 mg reduced L-glutathione (0.065 mmol) were added to a 100 ml flask with 60 ml sodium phosphate buffer (5% [w/w], pH=7.0) and stirred until dissolution was complete. 60 mg bilberry extract [37% anthocyanosides] (0.048 mmol expressed as cyanidin-3-O-glucoside) were added and the flask was filled to volume with sodium phosphate buffer (5% [w/w], pH=7.0) and kept at 37° C. (water bath) with stirring. Every 15 minutes, 1 ml samples were taken and analyzed for selected anthocyanosides by HPLC.
Samples were prepared as outlined below in HPLC Analytical Method. Test stability samples were immediately acidified (to block degradation) and injected undiluted following the detailed description provided below.
HPLC Analytical Method (Materials, Instruments and Methods): […]

[3] = Example 1: stability of bilberry extract anthocyanosides, 4 hours at 37° C., pH 7.0, with/without DHLA or GSH (HPLC)
[4] = Cyanidin-3-O-galactoside at pH 3.1 or 7.0 with/without DHLA, 25° C. over 3 days (HPLC)
Experimental: Cyanidn-3-O-Galactoside (0.001 molar solution) was dissolved at pH=3.1 or pH=7.0 each with/without DHLA (1.44 mmolar solution). Replicate incubations were followed at 25° C. over 3 days by HPLC.

[5] = unprotected, pH 7.0, 37° C., 4 hours
[6] = 20 mg reduced L-glutathione, pH 7.0, 37° C., 4 hours
[7] = 30 mg dihydrolipoic acid, pH 7.0, 37° C., 4 hours

For OC[C@H]1O[C@@H](Oc2cc3c(O)cc(O)cc3[o+]c2-c2ccc(O)c(O)c2)[C@H](O)[C@@H](O)[C@H]1O [Cn-3O-Gal, Cyanidin-3-O-galactoside], the “Peak Area, Fresh solution” value ([1]; bilberry extract 60 mg in buffer pH 7.0, fresh sample) was 465.8, the “% left, L-cysteine 20 mg” value ([1]; pH 7.0, 37° C., 4 hours) was 77.3% and the “Peak Area, L-cysteine 20 mg” value ([1]; pH 7.0, 37° C., 4 hours) was 360.2. For the same molecule, the “% left, Blank” value [1, 5] was 41.0%, the “Peak Area, Blank” value [1, 5] was 191.1 and the “Peak Area” value ([2]; Blank Sample, 1:15 h) was 305.40. The “Peak Area” value ([2]; Blank Sample, 4:15 h) was 300.50, the “Peak Area” value ([2]; Blank Sample, 4:30 h) was 205.36 and the “Peak Area” value ([2]; Blank sample, 0:00 h) was 498.85. The “Peak Area” value ([2]; Blank sample, 0:15 h) was 390.37, the “Peak Area” value ([2]; Blank sample, 0:30 h) was 433.94 and the “Peak Area” value ([2]; Blank sample, 0:45 h) was 347.29. For the same molecule, the “Peak Area” value ([2]; Blank sample, 1:00 h) was 380.25, the “Peak Area” value ([2]; Blank sample, 1:45 h) was 353.94 and the “Peak Area” value ([2]; Blank sample, 2:00 h) was 337.90. For the same molecule, the “Peak Area” value ([2]; Blank sample, 2:15 h) was 320.70, the “Peak Area” value ([2]; Blank sample, 2:30 h) was 271.19 and the “Peak Area” value ([2]; Blank sample, 2:45 h) was 274.22. The “Peak Area” value ([2]; Blank sample, 3:00 h) was 324.58, the “Peak Area” value ([2]; Blank sample, 3:15 h) was 324.25 and the “Peak Area” value ([2]; Blank sample, 3:30 h) was 281.19. The “Peak Area” value ([2]; Blank sample, 4:00 h) was 315.54, the “%-residual anthocyanosides (% left)” value ([2]; Blank) was 41% and the “Peak Area” value ([2]; GSH Protected Sample (20 mg), 0:30 h) was 470.61. The “Peak Area” value ([2]; GSH Protected Sample (20 mg), 1:30 h) was 431.86, the “Peak Area” value ([2]; GSH Protected Sample (20 mg), 2:30 h) was 390.23 and the “Peak Area” value ([2]; GSH Protected Sample (20 mg), 3:30 h) was 422.54. The “Peak Area” value ([2]; GSH Protected Sample (20 mg), 4:30 h) was 420.37, the “Peak Area” value ([2]; GSH Protected Sample (20 mg), 4:45 h) was 393.21 and the “Peak Area” value ([2]; GSH protected sample (20 mg), 0:00 h) was 508.09. The “Peak Area” value ([2]; GSH protected sample (20 mg), 0:15 h) was 504.88, the “Peak Area” value ([2]; GSH protected sample (20 mg), 0:45 h) was 425.89 and the “Peak Area” value ([2]; GSH protected sample (20 mg), 1:00 h) was 462.71. The “Peak Area” value ([2]; GSH protected sample (20 mg), 1:15 h) was 452.17, the “Peak Area” value ([2]; GSH protected sample (20 mg), 1:45 h) was 442.86 and the “Peak Area” value ([2]; GSH protected sample (20 mg), 2:00 h) was 436.19. The “Peak Area” value ([2]; GSH protected sample (20 mg), 2:15 h) was 442.30, the “Peak Area” value ([2]; GSH protected sample (20 mg), 2:45 h) was 422.32 and the “Peak Area” value ([2]; GSH protected sample (20 mg), 3:00 h) was 433.21. The “Peak Area” value ([2]; GSH protected sample (20 mg), 3:15 h) was 425.54, the “Peak Area” value ([2]; GSH protected sample (20 mg), 3:45 h) was 397.72 and the “Peak Area” value ([2]; GSH protected sample (20 mg), 4:00 h) was 446.42. The “Peak Area” value ([2]; GSH protected sample (20 mg), 4:15 h) was 419.80, the “%-residual anthocyanosides (% left)” value ([2]; GSH-protected) was 77% and the “%-residual anthocyanosides (% left)” value ([2]; GSH-protected, listed as cyanidin-3-O-galactose) was 77%. For the same molecule, the “% left, GSH (4 hours)” value [3, 6] was 77.3%, the “Peak Area, GSH (4 hours)” value [3, 6] was 360.2 and the “% left, DHLA (4 hours)” value [3, 7] was 64.5%. For the same molecule, the “Peak Area, DHLA (4 hours)” value [3, 7] was 300.3, the “Peak Area, Fresh (0 hours)” value ([3]; bilberry extract 60 mg/100 ml sodium phosphate buffer pH 7.0, fresh sample) was 465.8 and the “% left, Blank (4 hours)” value [3, 5] was 41.0%. The “Peak Area, Blank (4 hours)” value [3, 5] was 191.1, the “recovered after 3 days” value ([4]; pH 3.1, 25° C., in presence of DHLA (1.44 mmolar)) was 95% and the “recovered after 3 days” value ([4]; pH 3.1, 25° C., unprotected sample) was 61%. The “recovered after 3 days” value ([4]; pH 7.0, 25° C., in presence of DHLA (1.44 mmolar)) was “about 47%” and the “recovered after 3 days” value ([4]; pH 7.0, 25° C., unprotected sample) was roughly 0%.
